Seven molecules from ChEMBL document CHEMBL5154700, “Discovery of Gut-Restricted Small-Molecule Inhibitors of Intestinal Sodium-Dependent Phosphate Transport Protein 2b (NaPi2b) for the Treatment of Hyperphosphatemia” (J Med Chem, 2022) can be followed below.

pIC50: −log10 of the molar value. Converted amounts (≈) assume the structure as drawn. Where only a bound is given, the exact number is not on record here.

Data set [1] can be described thus: Passive permeability of the compound across apical to basolateral at 100 uM incubated for 5 hrs by PAMPA assay. To be noted: read-out: permeability. It counts as ADME.
The target of data set [2] is T1, Sodium-dependent phosphate transport protein 2B (Homo sapiens, UniProt O95436).
T1 sequence (O95436 whole entry): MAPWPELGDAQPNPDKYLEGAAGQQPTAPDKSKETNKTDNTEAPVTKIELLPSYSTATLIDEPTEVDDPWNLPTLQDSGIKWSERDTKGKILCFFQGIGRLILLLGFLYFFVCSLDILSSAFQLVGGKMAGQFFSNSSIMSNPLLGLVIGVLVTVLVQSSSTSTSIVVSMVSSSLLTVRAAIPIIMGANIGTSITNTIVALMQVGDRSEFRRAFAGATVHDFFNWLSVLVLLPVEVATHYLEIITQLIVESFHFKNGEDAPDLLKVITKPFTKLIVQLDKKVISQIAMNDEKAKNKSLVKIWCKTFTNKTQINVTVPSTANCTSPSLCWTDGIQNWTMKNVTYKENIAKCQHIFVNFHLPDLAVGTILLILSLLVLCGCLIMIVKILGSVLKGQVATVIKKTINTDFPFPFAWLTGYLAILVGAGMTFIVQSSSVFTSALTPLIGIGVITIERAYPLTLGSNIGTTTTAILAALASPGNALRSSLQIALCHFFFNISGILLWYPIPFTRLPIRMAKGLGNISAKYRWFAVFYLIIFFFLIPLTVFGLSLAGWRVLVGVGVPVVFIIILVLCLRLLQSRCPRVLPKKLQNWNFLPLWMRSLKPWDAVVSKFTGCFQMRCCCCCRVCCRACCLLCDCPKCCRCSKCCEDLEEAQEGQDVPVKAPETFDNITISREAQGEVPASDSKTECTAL
The data set is described as follows: Inhibition of human NaPi2b expressed in KJMGER8 cells assessed as reduction in H2[33P]O4 uptake incubated for 60 mins by TopCount scintillation counting method. In kind it is cell-based.

A short description of data set [3]: Solubility of compound in phosphate buffer at pH 7.4. In kind it is physicochemical.
Data set [4] can be described thus: Drug concentration in CRL:CD(SD) rat plasma at 30 mg/kg, po measured after 7 hrs by LC-MS/MS analysis. In kind it is ADME, organism-based.
Data set [5] can be described thus: Drug concentration in CRL:CD(SD) rat lung at 30 mg/kg, po measured after 7 hrs by LC-MS/MS analysis. To be noted: read-out: Ct. In kind it is ADME, organism-based.
A short description of data set [6]: Cmax in CRL:CD(SD) rat at 30 mg/kg, po measured after 7 hrs by LC-MS/MS analysis. In kind it is ADME, organism-based. To be noted: in vivo. Also on record: dose 30 mg/kg, time 7 hrs, route po.
A short description of data set [7]: Half life in CRL:CD(SD) rat at 30 mg/kg, po measured after 7 hrs by LC-MS/MS analysis. In kind it is ADME, organism-based. To be noted: in vivo.
The nature of data set [8]: AUC (0 to t) in CRL:CD(SD) rat at 30 mg/kg, po measured after 7 hrs by LC-MS/MS analysis. Particulars: in vivo. Also on record: time 7 hrs, dose 30 mg/kg, route po. It counts as ADME, organism-based.
The nature of data set [9]: AUC(0 to infinity) in CRL:CD(SD) rat at 30 mg/kg, po measured after 7 hrs by LC-MS/MS analysis. In kind it is ADME, organism-based. Also on record: dose 30 mg/kg, time 7 hrs, route po. Particulars: in vivo.
Data set [10] in a line: Mean residence time in CRL:CD(SD) rat at 30 mg/kg, po measured after 7 hrs by LC-MS/MS analysis. It counts as ADME, organism-based. To be noted: in vivo.
Data set [11] in a line: Oral bioavailability in CRL:CD(SD) rat at 30 mg/kg measured after 7 hrs by LC-MS/MS analysis. In kind it is ADME, organism-based. Particulars: in vivo.
Data set [12] can be described thus: Inhibition of phosphate uptake in CRL:CD(SD) rat small intestine in at 0.1 mg treated through intrajejunal after 30 mins by In-situ closed-loop method. To be noted: in vivo, other, 0.5 h.
Data set [13] in a line: Ratio of drug level in lung to plasma in CRL:CD(SD) rat at 30 mg/kg, po measured after 7 hrs by LC-MS/MS. It counts as ADME, organism-based. To be noted: lung and plasma.
Data set [14] in a line: Cmax in CRL:CD(SD) rat at 10 mg/kg, po by LC-MS/MS analysis. Particulars: in vivo. Also on record: dose 10 mg/kg, route po. It counts as ADME, organism-based.
A short description of data set [15]: AUC (0 to t) in CRL:CD(SD) rat at 10 mg/kg, po by LC-MS/MS analysis. In kind it is ADME, organism-based. Also on record: dose 10 mg/kg, route po. Particulars: in vivo.
The nature of data set [16]: Oral bioavailability in CRL:CD(SD) rat at 10 mg/kg by LC-MS/MS analysis. In kind it is ADME, organism-based. Particulars: in vivo.
The nature of data set [17]: Drug concentration in CRL:CD(SD) rat plasma at 30 mg/kg, po measured after 6 hrs by LC-MS/MS analysis. In kind it is ADME, organism-based.
Data set [18] can be described thus: Drug concentration in CRL:CD(SD) rat lung at 30 mg/kg, po measured after 6 hrs by LC-MS/MS analysis. It counts as ADME, organism-based. Particulars: read-out: Ct.

For the molecule `COCCN(CCOCCOCCOCCOCCOCCOCc1cccc(C(=O)Nc2sc3c(c2C(=O)N/N=C/c2ccc(Cl)c(C(F)(F)F)c2)CCC(C)(C)C3)c1)CC(=O)O`, in [1], the Papp at 5 h, 100 µM is < 0.025 ×10⁻⁶ cm/s. Moreover, in data set [2], the pIC50 is 7.19. Besides, in data set [3], the concentration in solution (solubility) was 122 µM (≈ 115 µg/mL). Moreover, the concentration at 7 h in [4] was < 0.3 ng/mL; in [5], < 1.5 ng/g. The same molecule displayed a Cmax in data set [6] of 0.444 ng/mL. Moreover, in data set [7], the half-life was 3.53 h. In [8], this molecule gave an AUC(0-t) at 7 h of 0.665 ng·h/mL. This molecule returned an AUC(0-inf) in data set [9] of 2.62 ng·h/mL. For the same molecule, the MRT in data set [10] came to 5.25 h. The molecule further registered a bioavailability in data set [11] of 0.1%. Also, the “inhibition (INH)” value in data set [12] turned out to be 17%.

As to `CC1(C)CCc2c(sc(NC(=O)c3cccc(OCCOCCOCCOC[C@H](O)CN(CCO)CCO)c3)c2C(=O)N/N=C/c2ccc(Cl)c(C(F)(F)F)c2)C1`, the pIC50 in [2] was 7.08. Besides, the solubility in data set [3] worked out at 76 µM (≈ 64.1 µg/mL). The Kp at 7 h in data set [13] came to 44.

With `CCN(CC)CCOCCOCCOc1cccc(C(=O)Nc2sc3c(c2C(=O)N/N=C/c2ccc(Cl)c(C(F)(F)F)c2)CCC(C)(C)C3)c1`, in [1], the Papp at 5 h, 100 µM is < 0.025 ×10⁻⁶ cm/s. For the same molecule, the pIC50 in data set [2] was 7.40. In [3], this molecule showed a solubility of 55 µM (≈ 40.6 µg/mL). Also, the Kp at 7 h in data set [13] is 130.

As to `CCN(CC)C[C@@H](O)COCCOCCOCCOc1cccc(C(=O)Nc2sc3c(c2C(=O)N/N=C/c2ccc(Cl)c(C(F)(F)F)c2)CCC(C)(C)C3)c1`, the Kp at 7 h in [13] turned out to be 428.

Molecule `CCN(CC)CCCN(C)Cc1cccc(C(=O)Nc2sc3c(c2C(=O)N/N=C/c2ccc(Cl)c(C(F)(F)F)c2)CCN(C2CC2)C3)c1` gave a Cmax in data set [14] of 3.59 ng/mL. In [15], this molecule displayed an AUC(0-t) of 10.4 ng·h/mL. This molecule also came in with a bioavailability in data set [16] of 0.96%. For the same molecule, the results for the concentration at 6 h in data set [17] and in [18] were 1.86 ng/mL and 6350 ng/g, respectively.

Take `CCN(CC)CCOCCOCCOc1cccc(C(=O)Nc2sc3c(c2C(=O)N/N=C/c2ccc(Cl)c(C(F)(F)F)c2)CCN(C2CC2)C3)c1`: in data set [1], the Papp at 5 h, 100 µM was determined as 0.23 ×10⁻⁶ cm/s. The pIC50 in data set [2] was 6.50. The solubility in data set [3] stood at 82 µM (≈ 61.5 µg/mL).

Regarding `O=C(Nc1sc2c(c1C(=O)N/N=C/c1ccc(Cl)c(C(F)(F)F)c1)CCCC2)c1cccc(CN2CCC(O)CC2)c1`, the negative logarithm of the IC50 (pIC50) in [2] is 7.06. This molecule displayed a solubility in [3] of 0.1 µM (≈ 0.0619 µg/mL).

Broadly, the pIC50 is the negative decadic logarithm of the IC50, by convention in mol/L. In general, solubility refers to the concentration that dissolves in the medium under given conditions. As a reminder, the Cmax is the peak of the concentration-time curve. As usually defined, the half-life is the time in which the quantity being followed falls by half. The term AUC(0-t) denotes exposure summed from dosing to a finite time, without extrapolation to infinity. High values mean high exposure, low ones low exposure. The term AUC(0-inf) denotes the area under the concentration-time curve extrapolated to infinity. Low readings indicate less exposure, high ones more exposure. Broadly, the MRT is a mean duration of stay, worked out from the concentration-time curve. In general, bioavailability refers to the share of a dose that reaches the circulation, judged against a reference dose that is usually intravenous. A low value points to poor availability. The term Kp denotes the ratio of the level in a tissue or fluid to that in plasma or blood.
